The results in this text go back to patent US9527850B2, “Benzyl piperidine compounds as lysophosphatidic acid (LPA) receptor antagonist” (Merck Patent GmbH, priority 2011, dated 2016).

For the assay, the target named is T1, LPA2 receptor (LPA2R) (Homo sapiens, UniProt Q9HBW0).
T1 construct: expressed in transfected cells; host or cells: U2OS
T1 sequence (Q9HBW0 whole entry): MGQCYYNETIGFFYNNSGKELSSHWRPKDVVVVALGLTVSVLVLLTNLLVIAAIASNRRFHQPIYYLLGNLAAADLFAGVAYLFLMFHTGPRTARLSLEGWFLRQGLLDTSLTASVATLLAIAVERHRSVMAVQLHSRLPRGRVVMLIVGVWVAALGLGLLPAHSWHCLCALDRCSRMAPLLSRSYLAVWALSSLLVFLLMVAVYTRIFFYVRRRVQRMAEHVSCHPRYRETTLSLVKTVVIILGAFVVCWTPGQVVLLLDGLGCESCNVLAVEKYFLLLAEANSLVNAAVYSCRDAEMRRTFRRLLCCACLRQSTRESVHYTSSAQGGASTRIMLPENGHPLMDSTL
The assay can be described thus: LPA2R-Calciumflux assay (intracellular calcium mobilisation, FLIPR). Type of assay: cell-based. The conditions noted are these: U2OS cells recombinant expressing LPA2R; inhibition of LPA-induced Ca-flux; 10 concentrations 30 uM to 1 nM, 1% DMSO. From the text:
The assay detects intra cellular calcium which is generated by cells upon activation of the LPA2 receptor by its ligand LPA. This transient calcium mobilization can be monitored using a commercial calcium detection kit (e.g. from Molecular Devices). The main component of such a kit is a dye, which becomes fluorescent when calcium is present—a transient fluorescence signal after laddition of a ligand to a test well are the result. Readers like the FLIPR (Molecular Devices) can be used to monitor such transient “Ca-flux” signals.
The signals are calculated according to peak maximum minus base line.
The assay is performed in microplates (384 wells per plate).
LPA2R-Calciumflux Assay Protocol
The assay is run according to the following procedure: • 50 uL seed cells (10000 cells/well in DMEM buffer) • Incubate 24 h at 37° C., 10% CO2 • aspirate medium • 50 uL add calcium dye 1×HBSS/HEPES buffer • incubate 1 h at 37° C. (“loading”) • equilibrate 10 min at RT • 5 uL add compounds in HEPES buffer • shake 10 sec. at 1000 rpm • incubate 15 min at RT • 20 uL add LPA (in the FLIPR Tetra) in Krebs-buffer/BSA & measurement
The cells are seeded in DMEM buffer (DMEM, 10% FCS, 10 mM HEPES, 1% Pen/Strep).
Dye loading is done in HBSS/HEPES buffer (100 mL 10×HBSS+20 mL 1M HEPES+880 mL water, pH 7.4)
The LPA is added in Krebs/BSA buffer (120 mM NaCl, 5 mM KCl, 0.62 mM MgSO4, 1.8 mM CaCl2, 10 mM HEPES, 6 mM D(+)-Glucose, 0.2% BSA, pH 7.4).
The compounds are pre-diluted in HEPES buffer (20 mM, pH 7.4), whereby the final DMSO content in the assay is kept at 1%. The compounds are pre-diluted in order to generate dose response series on the microplates. The dose response series consist of 10 concentrations for each compound from 30 uM final to 1 nM final. From all compound wells the resulting signals are referred to control wells (located on each plate besides the compound wells) in terms of % activity.
From these % activity values—along with the corresponding compound concentrations—IC50 values are fitted for each compound using standard fitting programs such as Graphpad Prism. Here the method “log(inhibitor) vs. response—Variable slope” is used.
Consider `COc1ccc2[nH]c(C3CC(C)CCN3Cc3ccc(C)c(C)c3)cc2c1` (centres unmarked) [compound 83, 2-[1-(3,4-Dimethyl-benzyl)-4-methyl-piperidin-2-yl]-5-methoxy-1H-indole], for which the IC50 is 500 to 5000 nM. Then `Fc1ccc2[nH]c(C3CCCCN3Cc3ccccn3)cc2c1` (centres unmarked) [compound 56, 5-Fluoro-2-(1-pyridin-2-ylmethyl-piperidin-2-yl)-1H-indole], with 500 to 5000 nM; and `Cn1cccc1CN1CCCCC1c1cc2ccccc2[nH]1` (centres unmarked) [compound 10], with 5000 to 15000 nM; and `Fc1ccc2[nH]c(C3CCCCN3Cc3cccc(Cl)c3Cl)cc2c1` (centres unmarked) [compound 54, 2-[1-(2,3-Dichloro-benzyl)-piperidin-2-yl]-5-fluoro-1H-indole], with 500 to 5000 nM. Then `COc1ccc(CN2CCCCC2c2cc3ccccc3o2)cc1` (centres unmarked) [compound 48, 2-Benzofuran-2-yl-1-(4-methoxy-benzyl)-piperidine], with 500 to 5000 nM; and `Brc1ccc(CN2CCCCC2c2cc3ccccc3[nH]2)cc1` (centres unmarked) [compound 67, 2-[1-(4-Bromo-benzyl)-piperidin-2-yl]-1H-indole], with 500 to 5000 nM; and `COc1cccc(CN2C(C)CCCC2c2cc3cc(F)ccc3[nH]2)c1` (centres unmarked) [compound 40, 5-Fluoro-2-[1-(3-methoxy-benzyl)-6-methyl-piperidin-2-yl]-1H-indole], with under 500 nM. Then `Cc1cccc(CN2CCCCC2c2nc3cc(Cl)cc(C)c3[nH]2)c1` (centres unmarked) [compound 99, 5-Chloro-7-methyl-2-[1-(3-methyl-benzyl)-piperidin-2-yl]-1H-benzo-imidazole], with 500 to 5000 nM; and `Cc1cc2nc(C3CCCCN3Cc3ccc(C)c(C(F)(F)F)c3)[nH]c2cc1Cl` (centres unmarked) [compound 127], with 500 to 5000 nM; and `Fc1ccc(CN2CCCC[C@@H]2c2cc3cc(F)ccc3[nH]2)cc1` [compound 136, 5-Fluoro-2-[(R)-1-(4-fluoro-benzyl)-piperidin-2-yl]-1H-indole], with under 500 nM.

With `CC1CCCC(c2cc3cc(F)ccc3[nH]2)N1Cc1ccc(F)cc1` (centres unmarked) [compound 36, 5-Fluoro-2-[1-(4-fluoro-benzyl)-6-methyl-piperidin-2-yl]-1H-indole], the IC50 is under 500 nM. As for `Cc1cccc(CN2CCCCC2c2cc3ccccc3[nH]2)c1` (centres unmarked) [compound 2, 2-[1-(3-Methyl-benzyl)-piperidin-2-yl]-1H-indole], the figure is under 500 nM. As for `Cc1ccc(CN2CCCCC2c2nc3ccc(Br)cc3[nH]2)cc1C` (centres unmarked) [compound 96, 6-Bromo-2-[1-(3,4-dimethyl-benzyl)-piperidin-2-yl]-1H-benzo-imidazole], the figure is under 500 nM; as for `Cc1ccc(CN2C(C)CCCC2c2cc3ccccc3[nH]2)cc1C` (centres unmarked) [compound 27, 2-[1-(3,4-Dimethyl-benzyl)-6-methyl-piperidin-2-yl]-1H-indole], under 500 nM. Take `COc1cc(CN2CCCCC2c2cc3cc(F)ccc3[nH]2)cc(OC)c1` (centres unmarked) [compound 55, 2-[1-(3,5-Dimethoxy-benzyl)-piperidin-2-yl]-5-fluoro-1H-indole]: the IC50 is 500 to 5000 nM. Then `COc1ccc(CN2CCCC(C)C2c2cc3c4c(ccc3[nH]2)CCC4)cc1` (centres unmarked) [compound 76, 2-[1-(4-Methoxy-benzyl)-3-methyl-piperidin-2-yl]-3,6,7,8-tetrahydro-cyclopenta [e]indole], with 5000 to 15000 nM; and `CCOc1ccc(CN2C(C)CCCC2c2cc3cc(F)ccc3[nH]2)cc1` (centres unmarked) [compound 34, 2-[1-(4-Ethoxy-benzyl)-6-methyl-piperidin-2-yl]-5-fluoro-1H-indole], with 500 to 5000 nM. Then `FC(F)(F)c1cccc(CN2CCCCC2c2nc3ccc(Br)cc3[nH]2)c1` (centres unmarked) [compound 92], with 500 to 5000 nM; and `Fc1ccc(CN2CCCCC2c2nc3cccnc3[nH]2)cc1` (centres unmarked) [compound 130, 2-[1-(4-Fluoro-benzyl)-piperidin-2-yl]-3H-imidazo[4,5-b]pyridine], with under 500 nM. Then `Cc1ccc(CN2CCCCC2c2cc3ccccc3[nH]2)cc1` (centres unmarked) [compound 13, 2-[1-(4-Methyl-benzyl)-piperidin-2-yl]-1H-indole], with under 500 nM.
